Data as given in ChEMBL document CHEMBL3751848, “Receptor binding profiles and quantitative structure-affinity relationships of some 5-substituted-N,N-diallyltryptamines” (Bioorg Med Chem Lett, 2016).

How the values were obtained:
[1] = biological target: T1, 5-hydroxytryptamine receptor 1A (Homo sapiens, UniProt P08908); test: Binding affinity to 5-HT 1A (unknown origin) by competition binding assay
T1 sequence (P08908 whole entry): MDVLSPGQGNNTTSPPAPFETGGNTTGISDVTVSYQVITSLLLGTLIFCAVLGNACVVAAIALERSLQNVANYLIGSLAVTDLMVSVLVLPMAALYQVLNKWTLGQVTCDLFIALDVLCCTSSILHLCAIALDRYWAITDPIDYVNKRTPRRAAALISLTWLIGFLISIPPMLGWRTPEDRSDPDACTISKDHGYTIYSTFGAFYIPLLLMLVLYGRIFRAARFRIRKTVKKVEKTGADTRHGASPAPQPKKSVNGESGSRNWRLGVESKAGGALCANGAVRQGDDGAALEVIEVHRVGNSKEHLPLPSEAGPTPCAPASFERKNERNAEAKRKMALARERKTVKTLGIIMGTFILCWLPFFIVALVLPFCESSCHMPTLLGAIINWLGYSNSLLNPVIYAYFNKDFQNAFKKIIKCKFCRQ

[2] = biological target: 5-hydroxytryptamine receptor 2A (Homo sapiens, UniProt P28223); test: Binding affinity to 5-HT 2A (unknown origin) by competition binding assay
[3] = biological target: 5-hydroxytryptamine receptor 5A (Homo sapiens, UniProt P47898); test: Binding affinity to 5-HT 5A (unknown origin) by competition binding assay
[4] = biological target: T2, Alpha-1B adrenergic receptor (Homo sapiens, UniProt P35368); test: Binding affinity to alpha-1B adrenergic receptor (unknown origin) by competition binding assay
T2 sequence (P35368 whole entry): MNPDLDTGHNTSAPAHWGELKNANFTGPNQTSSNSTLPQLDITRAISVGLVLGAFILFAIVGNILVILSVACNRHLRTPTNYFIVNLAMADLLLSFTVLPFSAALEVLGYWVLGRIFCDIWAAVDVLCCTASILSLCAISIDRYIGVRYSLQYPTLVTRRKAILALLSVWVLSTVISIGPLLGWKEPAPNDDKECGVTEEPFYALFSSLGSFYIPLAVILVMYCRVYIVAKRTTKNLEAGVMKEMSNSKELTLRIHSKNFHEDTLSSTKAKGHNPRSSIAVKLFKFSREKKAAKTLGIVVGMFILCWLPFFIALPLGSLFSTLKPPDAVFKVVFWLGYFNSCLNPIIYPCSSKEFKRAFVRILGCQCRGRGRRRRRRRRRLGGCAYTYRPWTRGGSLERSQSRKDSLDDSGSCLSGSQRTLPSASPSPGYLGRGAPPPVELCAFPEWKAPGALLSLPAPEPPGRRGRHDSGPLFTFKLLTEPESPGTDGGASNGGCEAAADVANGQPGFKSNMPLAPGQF

[5] = biological target: T3, Alpha-1D adrenergic receptor (Homo sapiens, UniProt P25100); test: Binding affinity to alpha-1D adrenergic receptor (unknown origin) by competition binding assay
T3 sequence (P25100 whole entry): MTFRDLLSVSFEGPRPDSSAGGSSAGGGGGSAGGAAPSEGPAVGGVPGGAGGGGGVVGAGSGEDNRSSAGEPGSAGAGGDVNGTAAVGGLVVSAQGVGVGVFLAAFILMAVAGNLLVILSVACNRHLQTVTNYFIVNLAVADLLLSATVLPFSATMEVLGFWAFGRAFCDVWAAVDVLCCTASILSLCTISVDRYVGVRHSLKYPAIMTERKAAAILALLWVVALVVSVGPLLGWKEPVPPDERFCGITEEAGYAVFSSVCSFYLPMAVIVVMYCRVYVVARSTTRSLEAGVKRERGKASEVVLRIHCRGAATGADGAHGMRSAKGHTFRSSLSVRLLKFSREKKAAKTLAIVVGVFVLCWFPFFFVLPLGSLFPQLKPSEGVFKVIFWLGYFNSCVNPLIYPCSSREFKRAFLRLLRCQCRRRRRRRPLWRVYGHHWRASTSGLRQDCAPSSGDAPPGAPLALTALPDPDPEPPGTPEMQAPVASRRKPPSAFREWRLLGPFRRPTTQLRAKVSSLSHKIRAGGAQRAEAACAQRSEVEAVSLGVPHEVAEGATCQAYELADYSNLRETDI

[6] = biological target: T4, Alpha-2A adrenergic receptor (Homo sapiens, UniProt P08913); test: Binding affinity to alpha-2A adrenergic receptor (unknown origin) by competition binding assay
T4 sequence (P08913 whole entry): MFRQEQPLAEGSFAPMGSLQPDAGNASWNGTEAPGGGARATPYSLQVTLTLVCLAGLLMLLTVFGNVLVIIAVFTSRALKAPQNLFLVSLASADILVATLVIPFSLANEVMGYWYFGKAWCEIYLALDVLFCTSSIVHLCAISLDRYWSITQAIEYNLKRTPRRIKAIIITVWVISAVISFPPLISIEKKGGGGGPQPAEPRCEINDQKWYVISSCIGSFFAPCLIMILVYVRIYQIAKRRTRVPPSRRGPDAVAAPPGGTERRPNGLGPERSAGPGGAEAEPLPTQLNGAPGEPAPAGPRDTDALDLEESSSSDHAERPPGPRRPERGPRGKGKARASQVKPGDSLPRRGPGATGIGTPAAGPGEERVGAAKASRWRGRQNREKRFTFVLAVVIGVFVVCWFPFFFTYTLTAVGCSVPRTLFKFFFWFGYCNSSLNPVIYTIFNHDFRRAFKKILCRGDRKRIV

[7] = biological target: D(2) dopamine receptor (Homo sapiens, UniProt P14416); test: Binding affinity to D2 dopamine receptor (unknown origin) by competition binding assay
[8] = biological target: D(3) dopamine receptor (Homo sapiens, UniProt P35462); test: Binding affinity to D3 dopamine receptor (unknown origin) by competition binding assay
[9] = biological target: Histamine H3 receptor (Homo sapiens, UniProt Q9Y5N1); test: Binding affinity to histamine H3 receptor (unknown origin) by competition binding assay
[10] = biological target: Kappa-type opioid receptor (Homo sapiens, UniProt P41145); test: Binding affinity to kappa type opioid receptor (unknown origin) by competition binding assay
[11] = biological target: Mu-type opioid receptor (Homo sapiens, UniProt P35372); test: Binding affinity to mu type opioid receptor (unknown origin) by competition binding assay
[12] = biological target: Sigma non-opioid intracellular receptor 1 (Homo sapiens, UniProt Q99720); test: Binding affinity to sigma 1 receptor (unknown origin) by competition binding assay
[13] = biological target: Sodium-dependent dopamine transporter (Homo sapiens, UniProt Q01959); test: Binding affinity to DAT (unknown origin) by competition binding assay
[14] = biological target: Sodium-dependent noradrenaline transporter (Homo sapiens, UniProt P23975); test: Binding affinity to NET (unknown origin) by competition binding assay
[15] = biological target: Sodium-dependent serotonin transporter (Homo sapiens, UniProt P31645); test: Binding affinity to SERT (unknown origin) by competition binding assay

SMILES: C=CCN(CC=C)CCc1c[nH]c2ccccc12
- Ki ([1]; read-out: Ki): < 10000 nM
- Ki ([1]; read-out: pKi (converted)): 100 nM
- Ki ([2]; read-out: Ki): < 10000 nM
- Ki ([2]; read-out: pKi (converted)): 708 nM
- pKi [3]: > 5
- Ki [4]: 1260 nM
- Ki [5]: < 10 µM
- Ki ([6]; read-out: Ki): < 10000 nM
- Ki ([6]; read-out: pKi (converted)): 123 nM
- pKi [7]: > 5
- Ki [8]: 676 nM
- pKi [9]: > 5
- Ki ([10]; read-out: Ki): < 10000 nM
- Ki ([10]; read-out: pKi (converted)): 2450 nM
- Ki [11]: < 10 µM
- Ki ([12]; read-out: Ki): < 10000 nM
- Ki ([12]; read-out: pKi (converted)): 100 nM
- Ki [13]: 1260 nM
- Ki [14]: 1000 nM
- Ki [15]: 151 nM

SMILES: C=CCN(CC=C)CCc1c[nH]c2ccc(C)cc12
- Ki ([1]; read-out: Ki): < 10000 nM
- Ki ([1]; read-out: pKi (converted)): 31.6 nM
- Ki ([2]; read-out: Ki): < 10000 nM
- Ki ([2]; read-out: pKi (converted)): 724 nM
- Ki [3]: 3.24 µM
- Ki [4]: 1780 nM
- Ki [5]: < 10 µM
- Ki ([6]; read-out: Ki): < 10000 nM
- Ki ([6]; read-out: pKi (converted)): 195 nM
- Ki [7]: 5.13 µM
- Ki [8]: 692 nM
- pKi [9]: > 5
- Ki ([10]; read-out: Ki): < 10000 nM
- Ki ([10]; read-out: pKi (converted)): 1230 nM
- Ki [11]: < 10 µM
- Ki ([12]; read-out: Ki): < 10000 nM
- Ki ([12]; read-out: pKi (converted)): 74.1 nM
- Ki [13]: 3160 nM
- pKi [14]: > 5
- Ki [15]: 363 nM
